Results on 3 compounds are retold here after patent publication US6696466B1, “Methods of treating select neuronal inflammatory disorders using hydroxyalkylquinolines” (priority 2000, dated 2004).

“And” between values parts separate entries of the source, which are not always exact repeats. Identical values can stand only once. “Also recorded” adds a separate entry of the source.

Assay type in all cases: in vivo, human
Assay [1] has as its system Herpes simplex I and II (HSV I and II). Description: Treatment and suppression of cold sores in patients. The settings on record: for time to resolution of cold sore: Singulair resumed vs the patient's previous sores treated with antivirals. As for the experimental part: Patient had recently discontinued use of Singulair® as a treatment for asthma. […] The cold sore resolved in three days after treatment with Singulair® was resumed. The rate of resolution was faster than the resolution of previous sores which were treated with antiviral treatments such as those marketed under the trademarks Zovirax® or Famvir® (approximately seven to ten days). During the subsequent two years, patient took Singulair® on a daily basis (10 mg, twice a day).
No cold sore was present at the time therapy was started. […] Within five days of termination of treatment, a cold sore developed.

For the next assay, the system named is carpal tunnel syndrome. Description: Treatment of patients with carpal tunnel syndrome. The settings on record: for carpal tunnel symptoms, response to treatment: 10 mg per day, taken orally. As for the experimental part: A carpenter who was experiencing the symptoms of carpal tunnel syndrome was treated with 10 mg of Singulair® per day, taken orally, for four weeks. They continued to perform their daily occupational activities throughout the period of treatment. […] Patient was then treated for short courses of 10 mg of Singulair® per day, whenever symptoms were present, until symptoms subsided.
A patient who worked as a billing clerk had carpal tunnel symptoms which had not responded to non-surgical methods of treatment. Patient was treated with Singulair® at 10 mg daily, taken orally.
A patient who works as a data entry clerk, experienced severe carpal tunnel symptoms. They ceased their occupational activities and began treatment with Singulair® at 10 mg per day, taken orally.
Patient was an insurance clerk who experienced severe carpal tunnel symptoms which had not abated, even after carpal tunnel decompression surgery. For years following surgery, they had experienced severe carpal tunnel symptoms.
Patient was an assembly line worker at an automobile production facility who was experiencing symptoms of carpal tunnel syndrome was treated with 10 mg of Singulair® per day taken orally. […] They required continuous treatment with 10 mg of Singulair® per day taken orally to maintain remission of their symptoms.

A further assay relates to cubital tunnel syndrome. Description: Treatment of a patient with cubital tunnel syndrome. As to conditions: 10 mg daily, taken orally, four weeks; single patient, prior NSAIDs and splints failed. Here is the method:
Patient was a golfer who experienced symptoms of cubital tunnel syndrome. […] Patient was treated with Singulair® at 10 mg daily, taken orally. […] No further treatment was required despite their return to their regular golfing activity.

The next assay relates to thoracic outlet syndrome. Description: Treatment of a patient with thoracic outlet syndrome. The settings on record: 10 mg per day, taken orally, four weeks; single patient. As for the experimental part: Patient was treated with Singulair® at 10 mg per day taken orally. […] No further treatment was required.
The test system of assay [2] is post-herpetic neuralgia due to a latent Herpes infection. Description: Treatment of post-herpetic neuralgia in patients. As to conditions: 10 mg per day, taken orally; single patient, neuralgia developed despite initial anti-viral agents. Here is the method:
Patient had post-herpetic neuralgia due to a latent Herpes infection. Neuralgia developed despite initial treatment with anti-viral agents as per standard treatment recommendations. Patient began treatment with Singulair® (10 mg per day, taken orally). The post-herpetic neuralgia resolved in ten days. No further treatment was required.
Patient had postherpetic neuralgia due to a latent Herpes infection. Neuralgia developed despite initial treatment with anti-viral agents as per standard treatment recommendations. Patient began treatment with Singulair® (10 mg per day, taken orally). The post-herpetic neuralgia resolved in 14 days. No further treatment was required.

Assay [3] relates to natural graying process of scalp hair. Description: Inhibition of graying of scalp hair in a patient. The settings on record: 10 mg per day, taken orally, two years and four months continuous; single patient with graying of temple regions. From the text: Patient had noted the onset of graying of the temple regions of their hair.

Consider `CC(=O)OCC(CCn1cnc2cnc(N)nc21)COC(C)=O` [Famvir®], for which the “time to resolution of cold sore” value in assay [1] (single patient) was “seven to ten”.

Consider `CC(C)(O)c1ccccc1CC[C@@H](SCC1(CC(=O)O)CC1)c1cccc(C=Cc2ccc3ccc(Cl)cc3n2)c1` [Singulair®, 1-(((1(R)-(3-(2-(7-chloro-2-quinolinyl)ethenyl)phenyl)-3-(2-(2-hydroxy-2-propyl)phenyl)propyl)thio)methyl)cyclopropaneacetic acid], for which the “carpal tunnel symptoms, response to treatment” value in the assay on carpal tunnel syndrome (four weeks, single patient) is recorded as “complete remission of symptoms; also recorded: symptoms had completely resolved”; in the assay on carpal tunnel syndrome (six weeks, single patient, occupational activities continued) it was “complete resolution of their carpal tunnel symptoms; also recorded: symptoms abated”. Moreover, the “carpal tunnel symptoms after cessation of treatment” value with carpal tunnel syndrome (after treatment was stopped, single patient) is reported as “the symptoms recurred; also recorded: remained symptom-free thereafter; also recorded: symptoms rapidly returned”. Further, the “carpal tunnel symptoms at follow-up” value with carpal tunnel syndrome (follow-up as in each example: forty weeks (Ex. 2), recheck two weeks after return to work on treatment (Ex. 3), continuing treatment (Ex. 4)) is reported as “remains symptom-free”. Besides, in the assay with carpal tunnel syndrome (treatment resumed after relapse, single patient), the “carpal tunnel symptoms on resumption of treatment” value was “Symptoms abated”. Also, the “cubital tunnel symptoms, response to treatment” value with cubital tunnel syndrome is listed as “Symptoms were entirely abated”. The “thoracic outlet syndrome symptoms, response to treatment” value with thoracic outlet syndrome was “symptoms had completely resolved”. Further, in assay [1] (10 mg per day orally, ten months, patient with history of average two cold sores per month), the “cold sores under continuous daily treatment” value is “remained free of cold sores”. The “development of new cold sore under daily treatment” value in assay [1] (10 mg, twice a day, two years, high ultraviolet light exposure, single patient) was “no new sore developed”. In addition, the “time to cold sore after termination of treatment” value in assay [1] (after ten months of treatment, same patient) is given as “five”. The “time to resolution of cold sore” value in assay [1] (single patient) was “three”. Also, in assay [1] (thirteen months after resumption of treatment, same patient), the “cold sores after resumption of treatment” value is given as “remained free of cold sores”. The “time to resolution of post-herpetic neuralgia” value in assay [2] was “ten and 14 days”. Besides, the “progression of graying of scalp hair” value in assay [3] is “No progression of the graying process”.

As for `Nc1nc2c(ncn2COCCO)c(=O)[nH]1` [Zovirax®], the “time to resolution of cold sore” value in assay [1] (single patient) was “seven to ten”.
